Data from patent US5451599A, “Complex salts of hematoporphyrin and of its derivatives, their synthesis, and therapeutic agent” (Wojskowa Akademia Techniczna im. Jaroslawa Dabrowskiego, priority 1991, dated 1995).

Legend:
[1] = test system: Hela (cervix uteri cancer cells); assay: 48 h incubation with the salts: cell fluorescence, living cells, multiplication coefficient (Table 1); format: cell-based, Human; details: 48 hs, 50 mcg/ml
Protocol: (§1) New compounds of formula 1 were tested on cell lines. Use was made of 9 different neoplastic cell lines which were incubated for 48 hs with various new salts of protoporphyrin and with a new salt of the conventionally applied HpD preparation/hematoporphyrin derivatives/obtained according to Lipson et al. All compounds were used in the form of aqueous solutions, at a concentration of 50 mcg/ml. Determination was made of:
(§2) 1/ Cell fluorescence /F/: after 48 hs incubation, the cells were washed away, the intensity of fluorescence was measured in a fluorescence microscope and was expressed on an arbitrary scale of 0-4 scores;
(§3) 2/ Percentage of living cells /P %/ after 48 hs incubation;
(§4) 3/ Cell multiplication coefficient /M/ in the presence of different preparations, expressed as: [formula]

CL = assay: as above; format: cell-based; details: 48 hs, 50 mcg/ml
Protocol: as §1, §2, §3, §4

[2] = test system: MA-104 (Rhesus monkey embryo kidney cancer cells); assay: as above; format: cell-based; details: 48 hs, 50 mcg/ml
Protocol: as §1, §2, §3, §4

PZ = assay: as above; format: cell-based; details: 48 hs, 50 mcg/ml
Protocol: as §1, §2, §3, §4

[3] = test system: KB (oral cavity cancer cells); assay: 48 h incubation with the salts: cell fluorescence, living cells, multiplication coefficient (Table 2); format: cell-based, Human; details: 48 hs, 50 mcg/ml
Protocol: as §1, §2, §3, §4
KB oral cavity cancer cells

[4] = test system: HBT-39/w (breast cancer cells); assay: as above; format: cell-based, Human; details: 48 hs, 50 mcg/ml
Protocol: as §1, §2, §3, §4

[5] = test system: GR (GRMT/F6, mammary gland cancer cells of GR-strain mice); assay: as above; format: cell-based, Murine; details: 48 hs, 50 mcg/ml
Protocol: as §1, §2, §3, §4
GRMT/F6 mammary gland cancer cells of GR-strain mice

[6] = test system: HEp-2 (larynx cancer cells); assay: 48 h incubation with the salts: cell fluorescence, living cells, multiplication coefficient (Table 3); format: cell-based, Human; details: 48 hs, 50 mcg/ml
Protocol: as §1, §2, §3, §4
Hep-2 larynx cancer cells

[7] = test system: Mm (Mm5MT/C1, mammary gland cancer cells of C3H-strain mice); assay: as above; format: cell-based, Murine; details: for Cell fluorescence /F/ / Cell multiplication coefficient /M/ / Percentage of living cells /P %/: Mm, 48 hs, 50 mcg/ml
Protocol: as §1, §2, §3, §4
mammary gland cancer cells of C3H-strain mice

[8] = test system: T-47D (breast cancer cells); assay: as above; format: cell-based, Human; details: 48 hs, 50 mcg/ml
Protocol: as §1, §2, §3, §4
T-47D breast cancer cells

[9] = test system: transplanted mammary gland cancer; assay: survival of C3H mice with transplanted mammary gland cancer, with and without He-Ne laser irradiation (FIG. 6); format: in vivo; details: 10 mg/kg body weight; with or without He-Ne laser 150 J/cm^2
Protocol: FIG. 6 is a graph showing the survival rate of C3H mice with transplanted mammary gland cancer after administration of compounds of the invention (with and without irradiation) and a control.
The new compounds were also studied in animals.
In animal studies, C3H mice with transplanted mammary gland cancer were administered both above-mentioned compounds in a dose of 10 mg/kg body weight, in two variants: mice irradiated with He-Ne laser in a dose of 150 J/cm^2 /in FIG. 6, marked by the letter L next to the symbol of the compound/and not irradiated ones. The results are recorded in the Figure.

Structure (SMILES)	Cell fluorescence /F/ [1]	Cell multiplication coefficient /M/ [1]	Percentage of living cells /P %/ [1]	Cell fluorescence /F/ (CL)	Cell multiplication coefficient /M/ (CL)	Percentage of living cells /P %/ (CL)	Cell fluorescence /F/ [2]	Cell multiplication coefficient /M/ [2]	Percentage of living cells /P %/ [2]	Cell fluorescence /F/ (PZ)	Cell multiplication coefficient /M/ (PZ)	Percentage of living cells /P %/ (PZ)	Cell multiplication coefficient /M/ [3]	Percentage of living cells /P %/ [3]	Cell fluorescence /F/ [4]	Cell multiplication coefficient /M/ [4]	Percentage of living cells /P %/ [4]	Cell fluorescence /F/ [5]	Cell multiplication coefficient /M/ [5]	Percentage of living cells /P %/ [5]	also measured
CC1=C(CCC(=O)O)c2cc3[nH]c(cc4nc(cc5[nH]c(cc1n2)c(C(C)NC(CCCCN)C(=O)O)c5C)C(C(C)NC(CCCCN)C(=O)O)=C4C)c(C)c3CCC(=O)O.N=C(N)NCCC[C@H](N)C(=O)O.N=C(N)NCCC[C@H](N)C(=O)O (stereo not drawn) [PP/Lys/2 /Arg/2, l-arginine di/N-lysyl/-protoporphyrinate]	+++	0,16	16%	+	0,30	30%	-	0,10	0%	+	0,50	50%	0,12	12%	++++	0,44	47%	+++	0,75	25%	Cell fluorescence /F/ [3]: -; Cell fluorescence /F/ [6]: ++; Cell multiplication coefficient /M/ [6]: 0,42; Percentage of living cells /P %/ [6]: 10%; Cell fluorescence /F/ [7]: ++; Cell multiplication coefficient /M/ [7]: 0,80; Percentage of living cells /P %/ [7]: 33%; activity in studies of the Mm5MT/C1 cell line (in words) ([7]; mammary gland cancer of C3H mice): one of the most active ones; Cell fluorescence /F/ [8]: ++; Cell multiplication coefficient /M/ [8]: 0,92; Percentage of living cells /P %/ [8]: 57%; mice survival [9]: most active, greatly prolonging mice survival
CC1=C(CCC(=O)O)c2cc3[nH]c(cc4nc(cc5[nH]c(cc1n2)c(C(C)NC(Cc1c[nH]c2ccccc12)C(=O)O)c5C)C(C(C)NC(Cc1c[nH]c2ccccc12)C(=O)O)=C4C)c(C)c3CCC(=O)O.N=C(N)NCCC[C@H](N)C(=O)O.N=C(N)NCCC[C@H](N)C(=O)O (stereo not drawn) [PP/Trp/2 /Arg/2, l-arginine di/N-tryptophanyl/-protoporphyrinate]	+++	0,62	62%	-	0,50	50%	+	0,25	25%	+	0,50	50%	0,21	21%	++++	0,11	18%	+++	0,62	62%	Cell fluorescence /F/ [6]: +++; Cell multiplication coefficient /M/ [6]: 0,15; Percentage of living cells /P %/ [6]: 15%; Cell fluorescence /F/ [7]: +++; Cell multiplication coefficient /M/ [7]: 0,33; Percentage of living cells /P %/ [7]: 11%; Cell fluorescence /F/ [8]: +; Cell multiplication coefficient /M/ [8]: 0,13; Percentage of living cells /P %/ [8]: 13%
